For orientation: Ki means a measure of affinity in units of concentration, obtained from inhibition or displacement.

One assay deals with T1, Cannabinoid receptor 2 (Rattus norvegicus, UniProt Q9QZN9).
T1 sequence (Q9QZN9 whole entry): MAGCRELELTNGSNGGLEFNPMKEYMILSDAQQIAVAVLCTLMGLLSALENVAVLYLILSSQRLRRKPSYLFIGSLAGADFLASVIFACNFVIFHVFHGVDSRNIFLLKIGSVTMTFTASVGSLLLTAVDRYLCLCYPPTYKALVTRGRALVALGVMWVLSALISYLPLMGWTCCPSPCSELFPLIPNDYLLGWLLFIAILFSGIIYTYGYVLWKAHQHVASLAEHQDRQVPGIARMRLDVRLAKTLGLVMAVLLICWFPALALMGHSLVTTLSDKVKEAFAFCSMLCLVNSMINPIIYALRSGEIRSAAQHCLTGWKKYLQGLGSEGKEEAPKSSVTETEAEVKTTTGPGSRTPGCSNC
Nature of the assay: Displacement of [3H]CP-55940 from rat forebrain membrane which expresses Cannabinoid receptor 2 in the presence of PMSF.

Assay [1] addresses T2, Fatty-acid amide hydrolase 1 (Homo sapiens, UniProt O00519).
T2 sequence (O00519 whole entry): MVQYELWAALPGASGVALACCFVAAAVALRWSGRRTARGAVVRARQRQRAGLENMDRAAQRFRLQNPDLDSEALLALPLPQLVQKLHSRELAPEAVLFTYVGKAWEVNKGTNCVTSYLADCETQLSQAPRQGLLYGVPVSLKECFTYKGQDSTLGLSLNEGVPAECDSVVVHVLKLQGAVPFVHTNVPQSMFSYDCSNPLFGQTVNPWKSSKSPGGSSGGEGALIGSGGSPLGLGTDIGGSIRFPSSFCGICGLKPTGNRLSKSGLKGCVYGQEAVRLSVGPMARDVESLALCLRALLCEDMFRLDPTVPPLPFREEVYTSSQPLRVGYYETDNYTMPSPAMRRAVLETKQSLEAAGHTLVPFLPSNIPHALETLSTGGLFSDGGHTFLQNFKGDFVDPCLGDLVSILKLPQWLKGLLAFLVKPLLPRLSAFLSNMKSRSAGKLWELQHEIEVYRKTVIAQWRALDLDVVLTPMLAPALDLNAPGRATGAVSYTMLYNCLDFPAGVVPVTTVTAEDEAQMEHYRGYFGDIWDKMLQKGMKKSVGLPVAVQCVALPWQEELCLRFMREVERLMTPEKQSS
In words: Inhibition of Fatty-acid amide hydrolase (FAAH) activity in human lymphoma U937 cell using [3H]AEA as substrate in the 0-25 uM conc. The assay is classed as cell-based, U-937.

A short description of assay [2]: Inhibition of N-arachidonoylethanolamine transporter (AEA) activity in human lymphoma U937 cell using [3H]AEA as substrate in the 0-1000 nM conc. Conditions: u-937. It is filed as cell-based.
The next assay has as its target Cannabinoid receptor 1 (Rattus norvegicus, UniProt P20272). Nature of the assay: Displacement of [3H]CP-55940 from rat forebrain membrane which expresses Cannabinoid receptor 1 in the presence of PMSF. Background: Displacement assays read how much labelled ligand stays bound in the presence of the test substance.
The target in assay [3] is Cannabinoid receptor (Rattus norvegicus) (UniProt Q9QZN9+P20272). In words: Ratio of Ki at CB1 to Ki at CB2 receptors. The assay is classed as protein assay.
Chain of Cannabinoid receptor (Rattus norvegicus) (P20272 whole entry, looked up, one chain of several): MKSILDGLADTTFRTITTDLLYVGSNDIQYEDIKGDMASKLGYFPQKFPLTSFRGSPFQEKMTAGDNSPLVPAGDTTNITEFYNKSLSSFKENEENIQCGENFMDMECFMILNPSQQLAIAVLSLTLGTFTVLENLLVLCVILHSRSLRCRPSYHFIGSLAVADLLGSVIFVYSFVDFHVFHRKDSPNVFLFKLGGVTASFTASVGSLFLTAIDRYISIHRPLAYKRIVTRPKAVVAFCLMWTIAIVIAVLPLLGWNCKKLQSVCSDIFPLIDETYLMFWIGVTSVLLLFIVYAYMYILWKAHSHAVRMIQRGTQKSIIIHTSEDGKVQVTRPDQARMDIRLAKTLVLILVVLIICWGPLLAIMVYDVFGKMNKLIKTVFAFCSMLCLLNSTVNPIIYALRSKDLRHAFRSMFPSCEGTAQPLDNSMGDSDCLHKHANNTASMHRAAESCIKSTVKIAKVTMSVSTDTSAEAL

Chain of Cannabinoid receptor 1 (P20272 whole entry): as the sequence (P20272 whole entry, looked up, one chain of several) above

Consider `CCCCC/C=C\C/C=C\C/C=C\C/C=C\CCCC(=O)OC(CO)CO` [2-ARACHIDONOYLGLYCEROL], for which the results for the Ki (at Cannabinoid receptor 2; in assay [1]; in assay [2]) were 100 nM, 5000 nM and 3000 nM, respectively.
On to `CCCCC/C=C\C=C\C(O)C/C=C\C/C=C\CCCC(=O)NCCO` (mixture of isomers), for which the Ki is more than 1000 nM on Cannabinoid receptor 2, more than 1000 nM on Cannabinoid receptor 1, 690 nM in assay [1] and more than 10000 nM in assay [2].
For `CCCCC[C@@H](O)/C=C/C=C\C/C=C\C=C\[C@H](O)CCCC(=O)NCCO`, the Ki on Cannabinoid receptor 2 was more than 1000 nM; at Cannabinoid receptor 1 it was more than 1000 nM; in assay [1] it was 1260 nM; in assay [2], more than 10000 nM.
As to `CCCCC/C=C\C/C=C\C/C=C\C/C=C\CCCC(=O)OC[C@H](O)CO`, the Ki at Cannabinoid receptor 2 is more than 1000 nM; on Cannabinoid receptor 1, more than 1000 nM; in assay [1], 2500 nM; in assay [2] it was 10000 nM.
Take `CCCCC/C=C\C=C\[C@@H](O)C/C=C\C/C=C\CCCC(=O)NCCO`: the Ki at Cannabinoid receptor 2 is more than 1000 nM; on Cannabinoid receptor 1, more than 1000 nM; in assay [1] it was 570 nM; in assay [2] it was more than 10000 nM.
Turning to `CCCCCC(O)/C=C/C=C\C/C=C\C/C=C\CCCC(=O)NCCO` (mixture of isomers), the Ki on Cannabinoid receptor 2 is more than 1000 nM; at Cannabinoid receptor 1 it was 680 nM; in assay [1] it was 630 nM; in assay [2], more than 10000 nM. Further, the Ratio in assay [3] was more than 0.7.
Consider `CCCCC[C@H](O)/C=C/C=C\C/C=C\C/C=C\CCCC(=O)OC[C@H](O)CO`, for which the Ki on Cannabinoid receptor 2 was more than 1000 nM; at Cannabinoid receptor 1, more than 1000 nM; in assay [1], 5000 nM; in assay [2], 7000 nM.
As for `CCCCC[C@H](O)/C=C/C=C\CCCCCCCC(=O)NCCO`, the inhibitory constant (Ki) at Cannabinoid receptor 2 was 600 nM; on Cannabinoid receptor 1 it was more than 1000 nM; in assay [1] it was 430 nM; in assay [2], more than 10000 nM. Also, the Ratio in assay [3] is more than 1.7.
Turning to `CCCCC[C@H](O)/C=C/C=C\C/C=C\C/C=C\CCCC(=O)OC[C@@H](O)CO`, the Ki at Cannabinoid receptor 2 was 550 nM; at Cannabinoid receptor 1, more than 1000 nM; in assay [1], 6000 nM; in assay [2], 9000 nM.
On to `CCCCC[C@@H](O)/C=C/C=C\C/C=C\C/C=C\CCCC(=O)NCCO`, for which the Ki on Cannabinoid receptor 2 is more than 1000 nM; at Cannabinoid receptor 1, 600 nM; in assay [1], 630 nM; in assay [2], more than 10000 nM. For the same molecule, the Ratio in assay [3] was less than 0.6.
With `CCCCC[C@H](O)/C=C/C=C\C=C\[C@@H](O)C/C=C\CCCC(=O)NCCO`, the Ki at Cannabinoid receptor 2 was more than 1000 nM; at Cannabinoid receptor 1, more than 1000 nM; in assay [1] it was 690 nM; in assay [2], more than 10000 nM.
For the molecule `CCCCC/C=C\C/C=C\C/C=C\C/C=C\CCCC(=O)NCCO` [ANANDAMIDE], the Ki in assay [1] and in assay [2] was more than 10000 nM each time.
`CCCCC/C=C\C[C@@H](O)/C=C/C=C\C/C=C\CCCC(=O)NCCO`: the Ki on Cannabinoid receptor 2 was 500 nM; on Cannabinoid receptor 1 it was 150 nM; in assay [1], 2900 nM; in assay [2], more than 10000 nM. Also, in assay [3], the Ratio came out at 0.3.
In the case of `CCCCC/C=C\C/C=C\C/C=C\C/C=C\CCCC(=O)OC[C@@H](O)CO`, the Ki on Cannabinoid receptor 2 is more than 1000 nM; on Cannabinoid receptor 1, more than 1000 nM; in assay [1], 3000 nM; in assay [2] it was more than 10000 nM.

(Values after ChEMBL document CHEMBL1135549 (J Med Chem, 2002).)
